Measured values taken from patent US20250127868A1, “HYPERACTIVATING LIPID NANOPARTICLES” (Corner Therapeutics, Inc., priority 2022, published 2025).

What was measured:
Format in all cases: cell-based
human PBMCs [1] = experiment: IFNγ secretion by human PBMCs (ELISA); conditions: two days post-activation
Description: (§1) Isolation of PBMCs from Whole Blood. PBMCs were isolated from whole blood using density gradient centrifugation with Ficoll-Paque PLUS (Cytivia). Whole blood was diluted 1:1 with PBS, layered on top of Ficoll-Paque PLUS and centrifuged at 1000×g for 30 minutes at room temperature. PBMCs were collected, washed twice in PBS, and incubated with Ack lysis buffer (Lonza) to remove any remaining red blood cells.
(§2) Cell Culture and Stimulation. Immediately following isolation, PBMCs were plated in RPMI medium containing 10% FBS, 50 units/mL penicillin, […] streptomycin, 2 mM L-glutamine, 1 mM sodium pyruvate, and […] beta-mercaptoethanol (R10 media). […]
(§3) Endpoint Analyses. […] Half of the media volume in the wells was collected for cytokine quantification by Enzyme-Linked Immunosorbent Assay (ELISA) or Lumit™ Bioluminescent assay, while the remaining media and cells were used to quantify cell viability by assessing metabolic activity.
(§4) Quantification of Cytokine Secretion. IL-1β secretion from human PBMCs was assessed using one of the following kits: ELISA MAX Deluxe Set Human IL-1β kit (Biolegend), Invitrogen Human IL-1β kit, or the Lumit™ Human IL-1β Immunoassay (Promega). IFNγ secretion from human PBMCs was assessed using the ELISA MAX Deluxe Set Human IFNγ (Biolegend) and TNFα secretion from human PBMCs was assessed using the Human TNFα Uncoated ELISA kit (Invitrogen). […]

canine PBMCs = experiment: IL-1β secretion by canine PBMCs (ELISA); conditions: two days post-activation, R848 1 μg/mL, 22:0 LYSO PC 82.5 μM, LPS 1 μg/mL, Alum 30 μg/mL
human PBMCs [2] = experiment: IL-1β secretion by human PBMCs (ELISA or Lumit); conditions: two days post-activation, R848 1 μg/mL, 22:0 LYSO PC 82.5 μM
Description: as §1, §2, §3, §4

Compound	IFNγ secretion, fold change per donor relative to R848 alone (human PBMCs [1])	IL-1β secretion (canine PBMCs)	IL-1β secretion (human PBMCs [2])
Nc1nc2c(ncn2[C@@H]2O[C@@H]3COP(=O)(O)O[C@H]4[C@@H](O)[C@H](n5cnc6c(N)ncnc65)O[C@@H]4COP(=O)(O)O[C@@H]2[C@@H]3O)c(=O)[nH]1 [2′3′cGAMP, reference compound]	neither GM-CSF nor 2′3′cGAMP elicited a substantial fold change in IFNγ secretion	neither GM-CSF nor 2′3′cGAMP induced significant IL-1β secretion	
GM-CSF: human GM-CSF (Peprotech), added at 10 ng/ml	neither GM-CSF nor 2′3′cGAMP elicited a substantial fold change in IFNγ secretion	neither GM-CSF nor 2′3′cGAMP induced significant IL-1β secretion	did not induce levels of IL-1β secretion from human PBMCs significantly above background levels
